Columns and labels:
UCHL1 = biological target: T1, UCHL1 (Homo sapiens, UniProt P09936); test: Gel-based competition assay with probe 8RK59, UCHL1 band; format: biochemical; conditions: compound 2 μM, 1 h; PARK7 and UCHL1 1 μM each; then 8RK59 2 μM 30 min; Figure 3B
T1 sequence (P09936 1-223): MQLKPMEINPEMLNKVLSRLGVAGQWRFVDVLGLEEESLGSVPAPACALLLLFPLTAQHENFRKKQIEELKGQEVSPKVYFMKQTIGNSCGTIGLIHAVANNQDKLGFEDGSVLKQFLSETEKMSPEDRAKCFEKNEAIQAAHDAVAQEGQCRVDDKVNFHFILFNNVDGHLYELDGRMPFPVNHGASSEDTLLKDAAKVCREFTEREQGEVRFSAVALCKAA
Description: (§1) To assess the inhibitory potency and selectivity of these compounds toward PARK7 and UCHL1, we performed a gel-based competition assay (Figure 3A).[36] A mixture of equal amounts of PARK7 and UCHL1 (1 μM) was treated with each of the synthesized compounds (2 μM) for 1 h, followed by incubation with fluorescent probe 8RK59 (2 μM) for 30 min. Samples were resolved by SDS-PAGE, and the gel was scanned for fluorescence. Inhibition of PARK7 or UCHL1 is reflected by the disappearance of their corresponding bands (Figure 3B). […] The inhibition potential of JYQ-88 against PARK7 was assessed in a similar assay where PARK7 was incubated with a serial dilution of JYQ-88 before treatment with probe 8RK59 (Figure 3C). A clear inhibition is visible at 0.5 μM, and full inhibition is achieved between 1 and 2 μM. […] The selectivity of JYQ-88 between UCHL1 and PARK7 was further confirmed in a direct competition assay between equal amounts of PARK7 and UCHL1 (Figure 3F). PARK7 inhibition was observed starting from 0.5 μM JYQ-88, whereas inhibition of UCHL1 was only detected at 20 μM. Since JYQ-88 and 8RK64 are enantiomers, we assumed that the interactions with PARK7 should be similar. To investigate how the chiral center influences the selectivity, we solved the crystal structure of the PARK7−JYQ-88 complex with 1.42 Å resolution (Figure 3G, Table S1, PDB 7PA3). The global positioning of the inhibitor in between the two α-helices was similar to that for 8RK64. […] This way, the thiazolo-pyridine part of JYQ-88 is bound in a similar manner as 8RK64 and the earlier observed interactions are largely the same. The formation of the isothiourea moiety, stabilized by the interaction with Glu18, and the interaction between the thiazole amine and the amide NH2 of the Asn76 side chain are still present. However, the interaction between the azidoacetyl carbonyl with the Leu128 backbone carbonyl can no longer be observed due to the rotation of the azidoacetyl moiety. The Lys132 residue also seems to have rotated (compared to Figure 2C).
(§2) The assay was performed in Tris buffer as described above.

PARK7 [1] = biological target: T2, PARK7 (Homo sapiens, UniProt Q99497); test: Gel-based competition assay with probe 8RK59, PARK7 band; format: biochemical; parameters: GST (N, cleaved yes); made in house; host or cells: E. coli BL21(DE3) Rosetta2; conditions: compound 2 μM, 1 h; PARK7 and UCHL1 1 μM each; then 8RK59 2 μM 30 min; Figure 3B
T2 sequence (Q99497 1-189): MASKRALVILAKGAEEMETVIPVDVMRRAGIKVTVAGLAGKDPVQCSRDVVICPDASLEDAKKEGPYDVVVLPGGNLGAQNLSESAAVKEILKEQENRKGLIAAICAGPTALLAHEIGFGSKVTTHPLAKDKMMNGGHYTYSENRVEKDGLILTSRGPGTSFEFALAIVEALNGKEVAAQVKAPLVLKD
Description: as §1, §2

PARK7 [2] = biological target: T2, PARK7; test: High-throughput FP screen of covalent fragment library with JYQ-107; format: binding; parameters: GST (N, cleaved yes); made in house; host or cells: E. coli BL21(DE3) Rosetta2; conditions: HTS, 100 μM compound, PARK7 0.2 μM, 2 h preincubation, JYQ-107 20 nM, 1536-well
Description: The screen was conducted using the conditions as described above in 1536-well plates (Corning 3724) with a reaction volume of 8 μL per well. The compound library containing 7887 covalent fragments was purchased at Enamine Ltd. and received as 100 mM DMSO stocks in 384 well LDV Echo plates (Labcyte LP-0200). Stock solutions of 0.26 μM PARK7 and 80 nM JYQ-107 were prepared. Using a Labcyte Echo550 acoustic dispenser, 8 nL of the DMSO stock solution of the library compounds was transferred from the source plates into the empty 1536-well screening plates to obtain a 100 μM final compound concentration. Next, PARK7 (6 μL, final concentration 0.2 μM) was dispensed using a Biotek MultiflowFX liquid dispenser and incubated for 2 h, followed by dispensing the probe JYQ-107 (2 μL, final concentration 20 nM). After 2 h incubation, the FP signal was recorded on a BMG Labtech PHERAstar plate reader (λex/em 480/520 nm). The relative loss of FP signal compared with reference controls was used to calculate the remaining enzyme activity.

PARK7 [3] = biological target: T2, PARK7; test: DiFMUAc PARK7 activity assay; format: biochemical; parameters: GST (N, cleaved yes); made in house; host or cells: E. coli BL21(DE3) Rosetta2; conditions: for DiFMuAc assay %Inhibiton (12.5 µM): 12.5 µM compound; for DiFMuAc assay %Inhibiton (12.5 µM) / DiFMuAc assay %Inhibiton (37.5 µM) / DiFMuAc assay %Inhibiton (100 µM): PARK7 0.1 μM, 2 h preincubation, DiFMUAc 300 μM; for DiFMuAc assay %Inhibiton (37.5 µM): 37.5 µM compound; for DiFMuAc assay %Inhibiton (100 µM): 100 µM compound; for inhibition at 12.5 µM: read-out: DiFMuAc assay %Inhibiton (12.5 µM); for inhibition at 37.5 µM: read-out: DiFMuAc assay %Inhibiton (37.5 µM); for inhibition at 100 µM: read-out: DiFMuAc assay %Inhibiton (100 µM)
Description: Compounds were transferred using a Labcyte Echo550 acoustic dispenser to obtain a 12-point serial dilution of 0.001 to 100 μM. Next, PARK7 (15 μL, final concentration of 0.1 μM) was dispensed with a Biotek MultiFlowFX liquid dispenser and incubated for 1 h, followed by dispensing the substrate DiFMUAc (5 μL, final concentration of 300 μM). The fluorescence intensity (FI) signal was monitored with a BMG Labtech PHERAstar plate reader (λex/em 350/450 nm) for 1 h.
The validation was performed in the PBS buffer with a reaction volume of 20 μL per well in triplicate. […] Next, PARK7 (15 μL, final concentration 0.1 μM) was dispensed with a Biotek MultiFlowFX liquid dispenser and incubated for 2 h, followed by dispensing the substrate DiFMUAc (5 μL, final concentration 300 μM). The FI signal was monitored with a BMG Labtech PHERAstar plate reader (λex/em 350/450 nm) for 1 h. The increase of FI signal compared with reference controls was used to calculate the remaining enzyme activity. The inhibition percentage of these 22 compounds was plotted as a heatmap using GraphPad Prism 9.0.1 software. Color gradients indicate inhibition percentage, no inhibiton (white) and full inhibition (blue).

PARK7 [4] = biological target: T2, PARK7; test: FP assay with Rhodamine110 probe JYQ-107 (IC50 and hit validation); format: binding; parameters: GST (N, cleaved yes); made in house; host or cells: E. coli BL21(DE3) Rosetta2; conditions: for FP assay %Inhibiton (12.5 µM): 12.5 µM compound; for FP assay %Inhibiton (12.5 µM) / FP assay %Inhibiton (37.5 µM) / FP assay %Inhibiton (100 µM): PARK7 0.2 μM, 1 h preincubation, JYQ-107 20 nM; for FP assay %Inhibiton (37.5 µM): 37.5 µM compound; for FP assay %Inhibiton (100 µM): 100 µM compound; for inhibition at 12.5 µM: read-out: FP assay %Inhibiton (12.5 µM); for inhibition at 37.5 µM: read-out: FP assay %Inhibiton (37.5 µM); for inhibition at 100 µM: read-out: FP assay %Inhibiton (100 µM)
Description: The assay was performed using the conditions as described above with a reaction volume of 20 μL per well in triplicate. Stock solutions of JYQ-88 of 1 and 0.1 mM were prepared. […] The FP signal was monitored with a BMG Labtech PHERAstar plate reader (λex/em 480/520 nm) for 2 h.
The validation was performed using the conditions as described above with a reaction volume of 20 μL per well in triplicate. […] The FP signal was monitored with a BMG Labtech PHERAstar plate reader (λex/em 480/520 nm) for 2 h. The relative loss of FP signal compared with reference controls was used to calculate the remaining enzyme activity. Inhibition percentage of these 40 compounds was plotted as a heatmap using GraphPad Prism 9.0.1 software. Color gradients indicate inhibition percentage, no inhibiton (white) and full inhibition (blue).

Compound | Inhibition of UCHL1 (disappearance of 8RK59-labeled band) (UCHL1) | Inhibition of PARK7 (disappearance of 8RK59-labeled band) (PARK7 [1]) | inhibition at 12.5 µM (PARK7 [3]) [%] | inhibition at 37.5 µM (PARK7 [3]) [%] | inhibition at 100 µM (PARK7 [3]) [%] | inhibition at 12.5 µM (PARK7 [4]) [%] | inhibition at 37.5 µM (PARK7 [4]) [%] | inhibition at 100 µM (PARK7 [4]) [%] | further results
CC1(C)CN(C(=O)CC2OCCCO2)CC2(CCCC2)O1 [Z1953185127, 1-{7,7-dimethyl-6-oxa-9-azaspiro[4.5]decan-9-yl}-2-(1,3-dioxan-2-yl)ethan-1-one] | – | – | – | – | – | – | – | – | Inhibition % (PARK7 [2]): 1.97%
CC(C#N)NS(=O)(=O)c1cccc(S(=O)(=O)F)c1 (centres unmarked) [Z2509451091] | – | – | – | – | – | – | – | – | DiFMuAc assay %Inhibiton (12.5 µM) (PARK7 [3]): 94.5%; DiFMuAc assay %Inhibiton (37.5 µM) (PARK7 [3]): 95.2%; DiFMuAc assay %Inhibiton (100 µM) (PARK7 [3]): 94.5%; FP assay %Inhibiton (12.5 µM) (PARK7 [4]): 100.0%; FP assay %Inhibiton (37.5 µM) (PARK7 [4]): 100.0%; FP assay %Inhibiton (100 µM) (PARK7 [4]): 100.0%
O=C(CSC(F)(F)F)Nc1cccc(S(=O)(=O)F)c1 [Z1713569375] | – | – | – | – | – | – | – | – | DiFMuAc assay %Inhibiton (12.5 µM) (PARK7 [3]): 81.4%; DiFMuAc assay %Inhibiton (37.5 µM) (PARK7 [3]): 49.1%; DiFMuAc assay %Inhibiton (100 µM) (PARK7 [3]): 97.1%; FP assay %Inhibiton (12.5 µM) (PARK7 [4]): 98.9%; FP assay %Inhibiton (37.5 µM) (PARK7 [4]): 100.0%; FP assay %Inhibiton (100 µM) (PARK7 [4]): 100.0%
O=C(NNS(=O)(=O)c1cccc(S(=O)(=O)F)c1)C1CCC1 [Z1764398070] | – | – | 95.7 | 98 | 96.8 | 100 | 100 | 100 | –
CC(C)CC(=O)NNS(=O)(=O)c1cccc(S(=O)(=O)F)c1 [Z1764309349] | – | – | 94 | 94.6 | 94.4 | 100 | 100 | 100 | –
O=S(=O)(F)c1cccc(S(=O)(=O)Nc2cccnc2O)c1 [Z1764375816] | – | – | 97.1 | 99.2 | 100 | 100 | 100 | 100 | –
CCCc1nnc(NS(=O)(=O)c2cccc(S(=O)(=O)F)c2)o1 [Z2509455014] | – | – | 97.8 | 99.3 | 96.5 | 100 | 100 | 100 | –

Now from value to compound, other results behind:

Inhibition of UCHL1 (disappearance of 8RK59-labeled band) (UCHL1) | Inhibition of PARK7 (disappearance of 8RK59-labeled band) (PARK7 [1]) | Compound | inhibition at 12.5 µM (PARK7 [3]) [%] | inhibition at 37.5 µM (PARK7 [3]) [%] | inhibition at 100 µM (PARK7 [3]) [%] | inhibition at 12.5 µM (PARK7 [4]) [%] | inhibition at 37.5 µM (PARK7 [4]) [%] | inhibition at 100 µM (PARK7 [4]) [%] | further results
hardly show any inhibition | hardly show any inhibition | N#CN1CC[C@H](C(=O)Nc2nc3c(s2)CN(C(=O)c2ccc(Br)cc2)CC3)C1 [JYQ-77, (S)-N-(5-(4-Bromobenzoyl)-4,5,6,7-tetrahydrothiazolo[5,4-c]pyridin-2-yl)-1-cyanopyrrolidine-3-carboxamide] | – | – | – | – | – | – | –
fully inhibit | less efficiently | N#CN1CC[C@H](C(=O)Nc2nc3c(s2)CN(C(=O)CCCCBr)CC3)C1 [JYQ-78, (S)-N-(5-(5-Bromopentanoyl)-4,5,6,7-tetrahydrothiazolo[5,4-c]pyridin-2-yl)-1-cyanopyrrolidine-3-carboxamide] | – | – | – | – | – | – | –
fully inhibit | less efficiently | N#CN1CC[C@H](C(=O)Nc2nc3c(s2)CN(C(=O)Cc2ccncc2)CC3)C1 [JYQ-76, (S)-1-Cyano-N-(5-(2-(pyridin-4-yl)acetyl)-4,5,6,7-tetrahydrothiazolo[5,4-c]pyridin-2-yl)pyrrolidine-3-carboxamide] | – | – | – | – | – | – | –
fully inhibit | less efficiently | CN1C(=O)CC(C(=O)N2CCc3nc(NC(=O)[C@H]4CCN(C#N)C4)sc3C2)[C@@H]1c1cccnc1 (stereo partly drawn) [JYQ-79, (3S)-1-Cyano-N-(5-((2R)-1-methyl-5-oxo-2-(pyridin-3-yl)pyrrolidine-3-carbonyl)-4,5,6,7-tetrahydrothiazolo[5,4-c]pyridin-2-yl)pyrrolidine-3-carboxamide] | – | – | – | – | – | – | –
hardly show any inhibition | hardly show any inhibition | (3S)-N-(5-((1S,2R,5R)-Adamantane-2-carbonyl)-4,5,6,7-tetrahydrothiazolo[5,4-c]pyridin-2-yl)-1-cyanopyrrolidine-3-carboxamide [JYQ-83] | – | – | – | – | – | – | –
hardly show any inhibition | hardly show any inhibition | N#CN1CC[C@H](C(=O)Nc2nc3c(s2)CN(C(=O)c2cn(CC4CCCO4)nn2)CC3)C1 (stereo partly drawn) [JYQ-55, (3S)-1-Cyano-N-(5-(1-((tetrahydrofuran-2-yl)methyl)-1H-1,2,3-triazole-4-carbonyl)-4,5,6,7-tetrahydrothiazolo[5,4-c]pyridin-2-yl)pyrrolidine-3-carboxamide] | – | – | – | – | – | – | Inhibition of PARK7 in FP assay (PARK7 [4]; increasing concentrations, 60 min preincubation, Figure S7): no inhibition

From article PMC9574860, “Chemical Toolkit for PARK7: Potent, Selective, and High-Throughput” (Journal of Medicinal Chemistry, 2022)
